# In patent US6294542A, “Pyrimidinone compounds, pharmaceutical compositions containing the compounds and the process for preparing the same” (Boryung Pharmaceutical Co. Ltd., priority 1998, dated 2001):
# Columns and labels:
# [1] = Acute Toxicity Test (oral, mice); format: in vivo; settings: for LD50: mouse, in vivo, po
# Procedure: Respective 5 mice of ICR system, which was distributed from Korean Laboratory Animal Center, were bred in a polycarbonate breeding box at a breeding environment of 23±1° C. of temperature, 55±5% of humidity, 10-15 times/hr of evacuation, 12 hr cycle of fluorescent light luminance, and 150-300 Lux of illumination.
# After observing the mice for one week of acclimation breeding period, only normal mice were selected for laboratory work. The mice were fed with sterilized feed for laboratory animals, which was made by Cheil Jedang Co.,Ltd, and supplied with purified water to drink.
# During the acclimation period, mice, who were evaluated to be healthy, were weighed and divided into groups randomly. Individual identification of laboratory animals was performed by indumentum pigment display and tag display per breeding box.
# Establishment of dose was carried out according to a result of preliminary test in such a manner that a maximum dose group for both male and female was set to 5000 mg/kg and azeotropy was set to 1.71. Medium-high, medium and medium-low dose groups were respectively set as follows and a control group was administrated with physiological saline for injection.
# Before administration of testing substances, body weight of the laboratory animals was in the range of 24-28 g in case of male and in the range of 19-28 g in case of female, respectively. The laboratory animals were aged 6 weeks.
# Preparation of the testing substances was dissolved in physiological saline before administration. Dose was calculated according to the body weight which was measured before administration and dispensed by oral administration to a mouse who was in abrosia for 18 hours before testing.
# Observation of clinical symptom such as general change, toxic symptom and mortality was performed for all laboratory animals once an hour during 6 hours after administration on the very administration day, and once a day from the next day to 14th day of administration.
# Administration group, who was administered with testing substances, and the control group were weighed on the administration day, first, third, seventh, tenth and fourteenth days from the administration at a predetermined time for all animals who were alive.
# After finish of the test, all animals were slightly anesthetized with ether and bleeding-killed. Appearance and internal organs of the animals were examined with naked eye carefully. Animals, who died during the text, were examined in the same manner.
# [2] = test system: Angiotensin II-induced pressor response; assay: In vivo Angiotensin II antagonism in conscious normotensive rats; settings: Rattus norvegicus, po; P.O.; conscious normotensive male SD rats; Angiotensin II 0.1 μg/kg; read-out: ID50 (dose of test compound necessary to produce 50% inhibition of Angiotensin II-induced pressor response)
# Procedure: The antagonistic activity of the compound (I) against the angiotensin II, which is prepared by the process according to a preferred embodiment of the invention, was evaluated with relation to rats.
# In vivo Angiotensin II antagonism in conscious normotensive rats.
# Male SD rats (Charles River Japan, 9 weeks, 300-350 g) were anesthetized with pentobarbital at 50 mg/kg i.p. Both the left femoral artery and the right femoral vein were cannulated. A heparin-filled catheter (50U/ml) was tunneled subcutaneously (s.c.) to the dorsal side of the neck and exteriorized.
# Rats were permitted to recover overnight from anesthesia and allowed free access to water, but food was withheld.
# The next day, the femoral artery catheter was connected to a pressure transducer (COBE 041-500-508, USA) coupled to a polygraph (GRASS Model 7, USA) to monitor arterial blood pressure. After an appropriate equilibration period, Angiotensin II (0.1 μg/kg) was injected in the femoral vein three times during the control period.
# Test compounds were then administered orally (p.o.) at a constant volume of 2 ml/kg.
# Angiotensin II challenges were repeated at set times thereafter.
# ID50 values, the dose of test compound necessary to produce 50% inhibition of Angiotensin II-induced pressor response, were calculated from peak inhibition percentage with several doses of test compound.
smiles,measurement,setting,value
"CCCCc1nc(C)c(CC(=S)N(C)C)c(=O)n1Cc1ccc(-c2ccccc2-c2nnn[nH]2)cc1 [Compound 2, 2-n-butyl-5-dimethylaminothiocarbonylmethyl-6-methyl-3-[[2'-(1H-tetrazol-5-yl)biphenyl-4-yl]methyl]-pyrimidine-4(3H)-one]",Mortality (death number/survival number),"[1]; female, 1000 mg/kg oral, day 0",0/5
same,Mortality (death number/survival number),"[1]; female, 1000 mg/kg oral, day 1",0/5
same,Mortality (death number/survival number),"[1]; female, 1000 mg/kg oral, day 2",0/5
same,Mortality (death number/survival number),"[1]; female, 1000 mg/kg oral, day 3",0/5
same,Mortality (death number/survival number),"[1]; female, 1000 mg/kg oral, day 7",0/5
same,Mortality (death number/survival number),"[1]; female, 1000 mg/kg oral, day 14",0/5
same,Mortality (death number/survival number),"[1]; female, 1710 mg/kg oral, day 0",0/5
same,Mortality (death number/survival number),"[1]; female, 1710 mg/kg oral, day 1",0/5
same,Mortality (death number/survival number),"[1]; female, 1710 mg/kg oral, day 2",0/5
same,Mortality (death number/survival number),"[1]; female, 1710 mg/kg oral, day 3",0/5
same,Mortality (death number/survival number),"[1]; female, 1710 mg/kg oral, day 7",0/5
same,Mortality (death number/survival number),"[1]; female, 1710 mg/kg oral, day 14",0/5
same,Mortality (death number/survival number),"[1]; female, 2924 mg/kg oral, day 0",0/5
same,Mortality (death number/survival number),"[1]; female, 2924 mg/kg oral, day 1",0/5
same,Mortality (death number/survival number),"[1]; female, 2924 mg/kg oral, day 2",0/5
same,Mortality (death number/survival number),"[1]; female, 2924 mg/kg oral, day 3",0/5
same,Mortality (death number/survival number),"[1]; female, 2924 mg/kg oral, day 7",0/5
same,Mortality (death number/survival number),"[1]; female, 2924 mg/kg oral, day 14",0/5
same,Final mortality (death number/total number),"[1]; female, 5000 mg/kg oral",0/5
same,Mortality (death number/survival number),"[1]; female, 5000 mg/kg oral, day 0",0/5
same,Mortality (death number/survival number),"[1]; female, 5000 mg/kg oral, day 1",0/5
same,Mortality (death number/survival number),"[1]; female, 5000 mg/kg oral, day 2",0/5
same,Mortality (death number/survival number),"[1]; female, 5000 mg/kg oral, day 3",0/5
same,Mortality (death number/survival number),"[1]; female, 5000 mg/kg oral, day 7",0/5
same,Mortality (death number/survival number),"[1]; female, 5000 mg/kg oral, day 14",0/5
same,Mortality (death number/survival number),"[1]; male, 1000 mg/kg oral, day 0",0/5
same,Mortality (death number/survival number),"[1]; male, 1000 mg/kg oral, day 1",0/5
same,Mortality (death number/survival number),"[1]; male, 1000 mg/kg oral, day 2",0/5
same,Mortality (death number/survival number),"[1]; male, 1000 mg/kg oral, day 3",0/5
same,Mortality (death number/survival number),"[1]; male, 1000 mg/kg oral, day 7",0/5
same,Mortality (death number/survival number),"[1]; male, 1000 mg/kg oral, day 14",0/5
same,Mortality (death number/survival number),"[1]; male, 1710 mg/kg oral, day 0",0/5
same,Mortality (death number/survival number),"[1]; male, 1710 mg/kg oral, day 1",0/5
same,Mortality (death number/survival number),"[1]; male, 1710 mg/kg oral, day 2",0/5
same,Mortality (death number/survival number),"[1]; male, 1710 mg/kg oral, day 3",0/5
same,Mortality (death number/survival number),"[1]; male, 1710 mg/kg oral, day 7",0/5
same,Mortality (death number/survival number),"[1]; male, 1710 mg/kg oral, day 14",0/5
same,Mortality (death number/survival number),"[1]; male, 2924 mg/kg oral, day 0",0/5
same,Mortality (death number/survival number),"[1]; male, 2924 mg/kg oral, day 1",0/5
same,Mortality (death number/survival number),"[1]; male, 2924 mg/kg oral, day 2",0/5
same,Mortality (death number/survival number),"[1]; male, 2924 mg/kg oral, day 3",0/5
same,Mortality (death number/survival number),"[1]; male, 2924 mg/kg oral, day 7",0/5
same,Mortality (death number/survival number),"[1]; male, 2924 mg/kg oral, day 14",0/5
same,Final mortality (death number/total number),"[1]; male, 5000 mg/kg oral",0/5
same,Mortality (death number/survival number),"[1]; male, 5000 mg/kg oral, day 0",0/5
same,Mortality (death number/survival number),"[1]; male, 5000 mg/kg oral, day 1",0/5
same,Mortality (death number/survival number),"[1]; male, 5000 mg/kg oral, day 2",0/5
same,Mortality (death number/survival number),"[1]; male, 5000 mg/kg oral, day 3",0/5
same,Mortality (death number/survival number),"[1]; male, 5000 mg/kg oral, day 7",0/5
same,Mortality (death number/survival number),"[1]; male, 5000 mg/kg oral, day 14",0/5
same,LD50,[1]; female mice,> 5000 mg/kg
same,LD50,[1]; male mice,> 5000 mg/kg
same,ED50,[2],1.1 mg/kg
